# Experimental data: patent US12637440B2, “Amide derivative useful as diacylglycerol acyltransferase 2 inhibitor, and use thereof” (LG CHEM, LTD., priority 2019, dated 2026)
# Target: T1, Recombinant human DGAT2 protein (Homo sapiens, UniProt Q96PD7)
# T1 construct: FLAG (DYKDDDDK); (N); made in house; host or cells: Sf-21 insect cells (BacPAK baculovirus system); used as a membrane preparation
# T1 sequence (Q96PD7 1-388): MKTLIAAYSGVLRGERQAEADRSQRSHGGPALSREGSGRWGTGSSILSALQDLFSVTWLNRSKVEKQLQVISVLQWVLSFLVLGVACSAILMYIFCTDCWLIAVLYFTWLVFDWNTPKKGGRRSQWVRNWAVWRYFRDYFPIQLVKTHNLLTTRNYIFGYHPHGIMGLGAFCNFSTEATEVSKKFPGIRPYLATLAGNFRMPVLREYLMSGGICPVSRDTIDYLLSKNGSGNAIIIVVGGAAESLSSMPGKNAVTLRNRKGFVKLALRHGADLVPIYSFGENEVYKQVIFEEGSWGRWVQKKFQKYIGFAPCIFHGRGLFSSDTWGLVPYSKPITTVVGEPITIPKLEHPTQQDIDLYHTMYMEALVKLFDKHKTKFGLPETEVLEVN
# Experiment: Measurement of inhibitory effect against DGAT2 enzyme activity (SPA, Phospholipid FlashPlate, [14C]-TG production)
# Assay type: biochemical
# Conditions: concentration inhibiting [14C]-labeled triacyl glycerol (TG) production by 50%; 2 μg DGAT2-membrane protein from Sf-21 cells, 37° C.
# How it was run: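 Membranes from Sf-21 cells expressing human DGAT2 (2 μg) preincubated 20 min at 37 °C with compound (3 nM–10 μM, 1% DMSO) in HEPES/MgCl2/BSA with 50 μM 1,2-dioleoyl glycerol, then 1 μM [14C]oleoyl-CoA for 15 min. [14C]-TG measured by SPA FlashPlate; inhibition as % of untreated control.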
row,IC50 [nM],Compound
1,60,"CCOc1ccccc1O[C@@H]1CCCN(c2nccc(NC(=O)CCc3ccc(C(C)(C)C(=O)O)cc3)n2)C1 [Example 122, (R)-2-(4-(3-((2-(3-(2-ethoxyphenoxy)piperidin-1-yl)pyrimidin-4-yl)amino)-3-oxopropyl)phenyl)-2-methylpropanoic acid]"
2,1800,"CCOc1ccccc1O[C@@H]1CCCN(c2cncc(NC(=O)CC(C)(C)CC(=O)O)n2)C1 [Example 25, (R)-5-((6-(3-(2-ethoxyphenoxy)piperidin-1-yl)pyrazin-2-yl)amino)-3,3-dimethyl-5-oxopentanoic acid]"
